From patent publication US20100022635A1, “Heat shock protein 90 inhibitor dosing methods” (University of Kansas, priority 2008, published 2010)

What was measured:
[1] = system: Hsp70; assay: Hsp70 levels in mouse brain after KU-32 IP administration (Hsp70/actin densitometry); type: in vivo, mice; conditions: single IP injection 2 or 20 mg/kg, frontal and hind brain sections, FIG. 2
Description: (§1) The plasma and brain levels of the Hsp90 inhibitor KU-32 as a function of time in mice were investigated following IP or IV injection to mice. Pharmacokinetics of KU-32 levels in mouse plasma and brain was determined by LC-MS. For these studies, female Balb/c mice (6-7 weeks) were injected with either 2 or 20 mg/kg KU-32 or vehicle. Mice were sacrificed at predetermined time points and plasma was collected following cardiac puncture for determination of KU-32 levels. The animals were perfused with normal saline and the brain was harvested and homogenized. Half the brain was analyzed for KU-32 levels and the remaining half was analyzed for Hsp70 levels.
Changes in Hsp70 levels in mouse brain over time following KU-32 IP administration were determined. The ratio of Hsp70 to actin was determined in frontal and hind brain sections recovered from brains of mice at each indicated time point shown in FIG. 2 following administration of either 2 or 20 mg/kg KU-32, as discussed in Example 1. Densitometric analyses were performed, and the ratio of the Hsp70 immunoreactivity was determined using actin as a loading control.

[2] = system: EAE model; assay: Single vs. weekly dosing in murine EAE MS model; type: in vivo, mice; conditions: single 20 mg/kg IP dose at onset of symptoms, first onset of disease (10-20 days)
Description: In this example, female SJL/J mice (6-7 weeks old) were immunized with proteolipid protein (“PLP”) in CFA and pertussis toxin IV on day 0. The mice were boosted with PLP in IFA on day seven. At the onset of symptoms, mice received either a single 20 mg/kg dose of KU-32 IP, weekly 2 mg/kg IP doses of KU-32, or no treatment. The mice were scored daily for severity of disease and body weight.

[3] = system: streptozotocin (STZ)-induced diabetic neuropathy; assay: STZ-induced diabetic neuropathy mouse model, initial studies (treatment after 8 weeks of diabetes); type: in vivo
Description: Physiological studies were performed in a diabetic mouse model to determine if KU-32 is suitable for further pre-clinical development. A mouse model of streptozotocin (STZ)-induced diabetic neuropathy was utilized. One such diabetic mouse model is described, for example, in Christianson et al., Neuroscience, 2007, 145 (1): 303-313. […] Thus, although the drug was capable of attenuating the decline in SNCV, a more powerful indicator of efficacy and clinical usefulness was desired to indicate the drug could reverse a pre-existing deficit in NCV. […] The study was therefore repeated with a larger trial size and under more stringent long-term diabetic conditions prior to weekly drug administration.

[4] = Pharmacokinetics: plasma and brain levels of KU-32 in mice by LC-MS; type: in vivo; conditions: female Balb/c mice, 2 or 20 mg/kg, IP or IV injection, FIG. 1
Description: as §1

[5] = system: neuregulin-induced demyelination; assay: Cell culture model of myelinated nerve; type: cell-based
Source text: Diabetic peripheral neuropathy (DPN) results from the degeneration of nerves that transmit sensations from the legs and arms. Schwann cells are specialized cells that closely associate with many nerves and also undergo profound changes in DPN. Schwann cells are necessary to form the myelin membrane that is present on many peripheral nerves and the loss of this myelin membrane is a common characteristic of human diabetic neuropathy. Identifying molecular mechanisms that may prevent demyelination or enhance remyelination are therefore good targets for therapeutic interventions in human DPN. Altered neurotrophism in DPN is described in detail in, for example, Dobrowsky et al., JPET 313:485-491, 2005. Heat shock protein 90 inhibitors offer a potential therapeutic approach toward treating DPN. A cell culture model of myelinated nerve was used to identify new molecular targets that can prevent demyelination.

[6] = Phase-solubility of KU-32 in Captisol in water; type: physicochemical
Description: On day 12 of the study mice received 2, 5 or 10 mg/kg KU-32 by IP injection on a daily basis. KU-32 was formulated at all concentrations in 0.05 M Captisol®. To access the phase-solubility behavior of KU-32 in Captisol®, KU-32 in excess of its expected solubility were equilibrated with increasing concentrations of Captisol® in water. The suspensions were allowed to equilibrate at least 24-hours at 25° C., after which time the suspensions were centrifuged and the KU-32 concentration in the supernatant determined by RP-HPLC.

[7] = system: streptozotocin (STZ)-induced diabetic neuropathy; assay: STZ-induced diabetic neuropathy mouse model, second trial (treatment after 12 weeks of diabetes); type: in vivo
Description: In a second trial, mice were rendered diabetic for 12 weeks. Diabetes was induced in test mice by 3 injections of streptozotocin (STZ) (n=28), and control mice (n=28) received a vehicle injection. Nerve conduction velocity (NCV) was measured in 4 mice from each group after 12 weeks, prior to initiating KU-32 treatment, after which time they developed substantial deficits in MNCV and SNCV (FIG. 7). Asterisks indicates p<0.05 compared to the time matched control. Diabetic mice also developed a substantial mechanical hypoalgesia after 5 weeks (FIG. 8) and a rapid onset of a thermal hypoalgesia (FIG. 9). Thus, any improvements by KU-32 were considered to be indicative of reversibility of a pre-existing deficits and not prevention.
After 12 weeks of diabetes, mice received weekly doses of 20 mg/kg KU-32 or vehicle by IP injection, and thermal and mechanical hypoalgesia were monitored. […] The asterisk indicates p<0.05 compared to the time matched control. The carat indicates p<0.05 compared to 14 weeks of STZ-Veh. Animal numbers were n=28 for Veh-Veh and STZ-Veh up to 12 weeks. Group numbers were n=12 at initiation of KU-32 and its vehicle (Veh).
The asterisk indicates p<0.05 compared to the time matched control, and the carat indicates p<0.05 compared to 14 weeks of STZ-Veh. Animal numbers were n=28 for Veh-Veh and STZ-Veh up to 12 weeks. Group numbers were n=12 at initiation of KU-32 and its vehicle (Veh).
Importantly, a similar recovery was evident after 12 weeks of diabetes despite the onset in improvement requiring 4 weeks of treatment. The delay may relate to the more severe decline in the function of the smaller sensory fibers since treatment was not started until 12 weeks of diabetes. The diabetic mice were very ill after 16 weeks and therefore were terminated at this time. […] Since the deficits in mechanical and thermal hypoalgesia reached a plateau between 12-14 weeks, the measures at 14 weeks of diabetes were used to assess for statistical improvements in sensory function after 3 or more weeks of KU-32 treatment. […] Thus, KU-32 improves nerve function in the absence of an overall improvement in metabolic parameters related to diabetes, i.e., hyperglycemia and weight loss. The data provides solid proof-of-principle that KU-32 can effectively reverse pre-existing deficits in two sensory measures that are direct, clinically relevant, parallels of human symptoms.

[8] = system: Experimental Autoimmune Encephalomyelitis; EAE; assay: Daily dosing in murine EAE multiple sclerosis model; type: in vivo, mice
Source text: In this example, female SJL/J mice (6-7 weeks old) were immunized with proteolipid protein (“PLP”) in CFA and pertussis toxin IV on day 0. The mice were boosted with PLP in IFA on day seven.

[9] = weekly 20 mg/kg IP after 8 weeks of diabetes, did not reach significance
[10] = diabetic animals receiving KU-32 compared to the diabetic mice

## CO[C@@H]1[C@@H](O)[C@@H](O)[C@H](Oc2ccc3cc(NC(C)=O)c(=O)oc3c2C)OC1(C)C [KU-32, N-(7-((2R,3R,4S,5R)-3,4-dihydroxy-5-methoxy-6,6-dimethyltetrahydro-2H-pyran-2-yloxy)-8-methyl-2-oxo-2H-chromen-3-yl)acetamide]
[1]
  Hsp70 levels in mouse brain (ratio of Hsp70 to actin): increased following single IP injection of KU-32 in mice over a 72-96 hour period and remained elevated
[2]; FIG. 5
  clinical score: better clinical score
[2]; FIG. 6
  body weight: lost less body weight
[3]; treatment initiated after 8 weeks of diabetes
  time to improvement in thermal sensitivity: evident within two weeks
[3]; weekly 20 mg/kg IP after 8 weeks of diabetes
  thermal hypoalgesia: sufficient to improve thermal hypoalgesia
[3]; weekly 20 mg/kg IP after 8 weeks of diabetes, decrease observed after 15 weeks of diabetes
  sensory nerve conduction velocity (SNCV): helped to improve the decrease in sensory nerve conduction velocity
[3]; [9]
  mechanical hypoalgesia: seemed to have an effect on mechanical hypoalgesia
  motor NCV (MNCV) deficit: improved the pre-existing motor NCV (MNCV) deficit
[4]
  KU-32 levels in mouse plasma and brain over time: fall below detectable limits by eight hours
[5]
  neuregulin-induced demyelination: prevent neuregulin-induced demyelination
[6]; 0.05-0.2 M Captisol in water, at least 24 hours at 25° C., RP-HPLC
  phase-solubility behavior: AP-type
[6]; 0.05 M Captisol
  solubility in 0.05 M Captisol: adequate solubility
[7]; [10]
  body weight: no differences
  fasting blood glucose: no differences
[7]; treatment started after 12 weeks of diabetes
  onset in improvement of thermal sensitivity: 4 weeks of treatment
[7]; weekly 20 mg/kg IP after 12 weeks of diabetes, FIG. 8
  mechanical hypoalgesia: significantly improved the mechanical hypoalgesia after 3 weeks of treatment
[7]; weekly 20 mg/kg IP after 12 weeks of diabetes, FIG. 9
  thermal hypoalgesia: improved thermal hypoalgesia
[8]; SJL/J mice, 2, 5 or 10 mg/kg IP daily from day 12, FIG. 3
  body weights: increase in the rate of onset and worsening of the disease
[8]; SJL/J mice, 2, 5 or 10 mg/kg IP daily from day 12, FIG. 4
  clinical score: increase in the rate of onset and worsening of the disease
